Like-named read-outs stand apart in the source and are kept apart here.
Experiments:
M1 muscarinic receptor = molecular target: T1, M1 muscarinic receptor (Homo sapiens, UniProt P11229); assay: Functional mobilization of intracellular calcium (FLIPR, Fluo-3), M1-CHO cells; format: cell-based; conditions: for Emax / M1 Efficacy: 100% efficacy is the maximum response obtained with the Carbachol control; for Emax: read-out: M1 Efficacy
T1 construct: expressed in transfected cells; host or cells: CHO cells (M1-CHO, under zeocin and G418 selection)
T1 sequence (P11229 1-460): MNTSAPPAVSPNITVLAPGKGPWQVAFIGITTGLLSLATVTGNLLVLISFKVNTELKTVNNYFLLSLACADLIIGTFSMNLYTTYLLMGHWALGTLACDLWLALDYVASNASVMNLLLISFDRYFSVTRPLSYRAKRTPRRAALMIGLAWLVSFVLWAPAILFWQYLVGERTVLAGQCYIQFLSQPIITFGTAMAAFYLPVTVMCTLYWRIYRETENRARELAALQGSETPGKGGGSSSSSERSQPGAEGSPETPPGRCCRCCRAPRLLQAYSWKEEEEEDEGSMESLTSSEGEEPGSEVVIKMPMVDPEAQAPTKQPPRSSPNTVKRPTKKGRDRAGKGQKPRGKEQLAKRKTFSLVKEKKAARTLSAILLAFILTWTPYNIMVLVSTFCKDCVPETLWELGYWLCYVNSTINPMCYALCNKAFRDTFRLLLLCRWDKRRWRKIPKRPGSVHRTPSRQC
Summary of the method: (§1)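 Fluo-3 read-out, ex 488/em 540 nm, 60 sec on FLIPR 3. For agonist mode, compound added directly; for inhibition, 15 min compound pre-incubation before carbachol at EC80 (added as a 3× solution), or co-application. Buffer pH 7.4 with 1 mM probenecid; DMSO 0.5%.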

M4 muscarinic receptor = molecular target: T2, M4 muscarinic receptor (Homo sapiens, UniProt P08173); assay: Functional mobilization of intracellular calcium (FLIPR, Fluo-3), M4-CHO cells; format: cell-based; conditions: for Emax / M4 Efficacy: 100% efficacy is the maximum response obtained with the Carbachol control; for Emax: read-out: M4 Efficacy
T2 construct: expressed in transfected cells; host or cells: CHO cells (M4-CHO, under puromycin, zeocin and blasticidin selection)
T2 sequence (P08173 1-479): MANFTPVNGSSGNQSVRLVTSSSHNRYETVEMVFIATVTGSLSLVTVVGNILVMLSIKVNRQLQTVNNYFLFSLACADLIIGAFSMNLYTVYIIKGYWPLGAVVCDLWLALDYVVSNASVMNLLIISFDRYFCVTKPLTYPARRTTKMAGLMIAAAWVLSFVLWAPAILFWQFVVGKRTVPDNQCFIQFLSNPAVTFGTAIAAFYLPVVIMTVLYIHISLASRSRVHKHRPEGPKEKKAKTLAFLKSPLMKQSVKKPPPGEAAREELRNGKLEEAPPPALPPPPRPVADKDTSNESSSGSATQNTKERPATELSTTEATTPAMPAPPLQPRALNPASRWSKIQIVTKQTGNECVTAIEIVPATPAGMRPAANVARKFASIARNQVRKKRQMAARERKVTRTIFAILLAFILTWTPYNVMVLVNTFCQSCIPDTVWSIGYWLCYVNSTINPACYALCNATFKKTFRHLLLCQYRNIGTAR
Summary of the method: as §1

[1] = compound nos. 1-454, M1-CHO cells, calcium mobilization
[2] = compound nos. 1-454, M4-CHO cells, calcium mobilization

Row | Compound | Emax (M1 muscarinic receptor; compound nos. 1-454) | M1 Activity (M1 muscarinic receptor; [1]) | Emax (M4 muscarinic receptor; compound nos. 1-454) | M4 Activity (M4 muscarinic receptor; [2]) | further results
1 | O=C(OC1CCC1)N1CC2(CCN(C3CC4CCC(C3)N4C(=O)O[C@H]3CCOC3)CC2)c2cc(F)ccc21 (stereo partly drawn) [compound 125] | 65 to 85% | +++ (activity was measured to be less than or equal to 0.7 μM) | < 55% | ++ (activity was measured to be between 0.1 μM and 4.0 μM) | 
2 | C#CCOC(=O)N1CCC(CN2CCC3(CC2)CN(C(C)=O)c2ccc(F)cc23)CC1 [compound 316] | < 65% | + (activity was measured to be greater than or equal to 3.0 μM) | < 55% | + (activity was measured to be greater than or equal to 4.0 μM) | 
3 | CCOC(=O)N1CCC(N2CCC3(CC2)CN(C(=O)c2ccc(OC)cc2)c2ccc(F)cc23)CC1 [compound 41] | > 85% | +++ (activity was measured to be less than or equal to 0.7 μM) | > 70% | +++ (activity was measured to be less than or equal to 0.1 μM) | 
4 | CCOC(=O)N1CCC(C)(CN2CCC3(CC2)C[C@H](NC(C)=O)c2ccccc23)CC1 [compound 315] | < 65% | + (activity was measured to be greater than or equal to 3.0 μM) | < 55% | + (activity was measured to be greater than or equal to 4.0 μM) | 
5 | CC#CCOC(=O)N1CCC(N2CCC3(CC2)CN(C(=O)N(C)C)c2ccc(F)cc23)CC1 [compound 353] | > 85% | +++ (activity was measured to be less than or equal to 0.7 μM) | 55 to 70% | + (activity was measured to be greater than or equal to 4.0 μM) | 
6 | CN(C)C(=O)N1CC2(CCN(CC3CCN(c4nccs4)C3)CC2)c2cc(F)ccc21 (stereo not drawn) [compound 450] | 65 to 85% |  | 55 to 70% |  | M1 Activity (M1 muscarinic receptor; compound nos. 1-454): ++ (activity was measured to be between 0.7 μM and 3.0 μM); M4 Activity (M4 muscarinic receptor; compound nos. 1-454): +++ (activity was measured to be less than or equal to 0.1 μM)
7 | CN([C@H]1CC2(CCN(C[C@H]3C[C@H]4CC[C@H]3C4)CC2)c2ccccc21)S(C)(=O)=O [compound 357] | < 65% | ++ (activity was measured to be between 0.7 μM and 3.0 μM) | < 55% | + (activity was measured to be greater than or equal to 4.0 μM) | 
8 | CCOC(=O)N1CCC(CN2CCC3(CC2)C[C@H](NC(C)=O)c2ccccc23)CC1 [compound 250] | 65 to 85% | ++ (activity was measured to be between 0.7 μM and 3.0 μM) | 55 to 70% | + (activity was measured to be greater than or equal to 4.0 μM) | 
9 | CC(=O)N1CC2(CCN(C3CCN(C(=O)OCCF)C3)CC2)c2cc(F)ccc21 (stereo not drawn) [compound 394] | < 65% |  | < 55% |  | M1 Activity (M1 muscarinic receptor; compound nos. 1-454): +++ (activity was measured to be less than or equal to 0.7 μM); M4 Activity (M4 muscarinic receptor; compound nos. 1-454): ++ (activity was measured to be between 0.1 μM and 4.0 μM)
10 | CCOC(=O)N1CCC(N2CCC3(CC2)CN(C(=O)N(CC)CC)c2ccc(F)cc23)CC1 [compound 223] | < 65% | + (activity was measured to be greater than or equal to 3.0 μM) | < 55% | + (activity was measured to be greater than or equal to 4.0 μM) | 
11 | COCCOC(=O)N1CC2(CCN(C3CC4CCC(C3)N4C(=O)O[C@@H]3CCOC3)CC2)c2cc(F)ccc21 (stereo partly drawn) [compound 304] | 65 to 85% | +++ (activity was measured to be less than or equal to 0.7 μM) | < 55% | + (activity was measured to be greater than or equal to 4.0 μM) | 
12 | CCOC(=O)N1CCC(N2CCC3(CC2)CN(C(C)=O)c2ccc(-c4ccc(C#N)cc4)cc23)CC1 [compound 253] | 65 to 85% | ++ (activity was measured to be between 0.7 μM and 3.0 μM) | 55 to 70% | + (activity was measured to be greater than or equal to 4.0 μM) | 
13 | Fc1ccc2c(c1)C1(CCN(C[C@H]3C[C@H]4CC[C@H]3C4)CC1)CO2 [compound 207] | 65 to 85% | ++ (activity was measured to be between 0.7 μM and 3.0 μM) | < 55% | + (activity was measured to be greater than or equal to 4.0 μM) | 
14 | Cc1ccc2c(c1)C1(CCN(C3CC4CCC3C4)CC1)CN2C(=O)c1cc(C)on1 (stereo not drawn) [compound 208] | < 65% | ++ (activity was measured to be between 0.7 μM and 3.0 μM) | < 55% | + (activity was measured to be greater than or equal to 4.0 μM) | 
15 | Cc1nsc(N2C3CCC2CC(N2CCC4(CCN(C(=O)N(C)C)c5ccccc54)CC2)C3)n1 (stereo not drawn) [compound 501] |  |  |  |  | Emax (M1 muscarinic receptor; compound nos. 455-509): > 100%; M1 Activity (M1 muscarinic receptor; compounds 455-509): +++ (activity was measured to be less than or equal to 2.0 μM); Emax (M4 muscarinic receptor; compound nos. 455-509): 25 to 100%; M4 Activity (M4 muscarinic receptor; compounds 455-509): ++ (activity was measured to be between 2.0 μM and 5.0 μM)
16 | CCOC(=O)N1C2CCC1CC(N1CCC3(CC1)COc1ccc(Cl)cc13)C2 (stereo not drawn) [compound 99] | < 65% | +++ (activity was measured to be less than or equal to 0.7 μM) | < 55% | + (activity was measured to be greater than or equal to 4.0 μM) | 
17 | COCCOC(=O)N1CCC(N2CCC3(CC2)CN(C(C)=O)c2ccc(F)cc23)CC1 [compound 284] | < 65% | ++ (activity was measured to be between 0.7 μM and 3.0 μM) | < 55% | ++ (activity was measured to be between 0.1 μM and 4.0 μM) | 
18 | CC(=O)N1CC2(CCN(C3CCN(C(=O)O[C@H]4CCOC4)CC3)CC2)c2cc(F)ccc21 [compound 418] | < 65% |  | < 55% |  | M1 Activity (M1 muscarinic receptor; compound nos. 1-454): + (activity was measured to be greater than or equal to 3.0 μM); M4 Activity (M4 muscarinic receptor; compound nos. 1-454): + (activity was measured to be greater than or equal to 4.0 μM)
19 | CC=CCOC(=O)N1C2CCC1CC(N1CCC3(CC1)CN(C(=O)N(C)C)c1ccc(F)cc13)C2 (stereo not drawn) [compound 200] | 65 to 85% | ++ (activity was measured to be between 0.7 μM and 3.0 μM) | < 55% | + (activity was measured to be greater than or equal to 4.0 μM) | 
20 | Cc1ccc2c(c1)C1(CCN([C@@H]3C[C@@H]4CC[C@@H]3C4)CC1)CN2 [compound 23] |  | ++ (activity was measured to be between 0.7 μM and 3.0 μM) |  | + (activity was measured to be greater than or equal to 4.0 μM) | M1 Efficacy (M1 muscarinic receptor; compound nos. 1-454): + (efficacy was calculated to be 65% or less); M4 Efficacy (M4 muscarinic receptor; compound nos. 1-454): + (efficacy was calculated to be 55% or less)
21 | CCOC(=O)N1CCC(N2CCC3(CC2)C[C@H](NC(C)=O)c2ccccc23)CC1 [compound 61] |  | +++ (activity was measured to be less than or equal to 0.7 μM) |  | ++ (activity was measured to be between 0.1 μM and 4.0 μM) | M1 Efficacy (M1 muscarinic receptor; compound nos. 1-454): ++ (efficacy was calculated to be between 85% and 65%); M4 Efficacy (M4 muscarinic receptor; compound nos. 1-454): ++ (efficacy was calculated to be between 70% and 55%)

From patent US7858635B2 (priority 2005, dated 2010)
